A short description of series [1]: Plasma pharmacokinetics after a single dose of liquid or solid oat product (compartmental PK model). In kind it is in vivo, humans. Details: V/F: unit not given here. The conditions noted are these: for Cmax / half-life / k el / Tmax: both sexes, oral; for Cmax / half-life / k el: human, plasma; for Cmax / half-life / k el / Tmax / ka / V/F / T1/2: single dose; for k el: elimination rate (Table 2), read-out: ke (converted); for Tmax: human plasma, derived from PK model; for V, population estimate (RSE%) / ka, population estimate (RSE%) / ke, population estimate (RSE%): Table S1 compartmental model; for ka: absorption rate (Table 2); for V/F: distribution volume over bioavailability. The source says:
A non-blinded, randomized two-way crossover study with two different oat products (solid or liquid) was designed to investigate the AVA and AVE PK after a single dose and after repeated dosing at three different doses, for respective food (Fig. 2). Since this is the first study of its kind, it is impossible to make any formal calculation of the number of subjects needed to show meaningful differences in plasma biomarker concentrations, since the variation is unknown. However, similar studies aimed for BFI discovery and validation of dose-response have typically used 5–30 subjects. We therefore considered 23 individuals as a good compromise between feasibility and possibilities to assess variation in biomarker concentrations, estimate pharmacokinetic parameters, dose response and performing modelling with good precision. A scientist not involved in the study, conducted the randomization using the RAR method (RandomizeR package) in R software environment and provided lists with allocated treatment sequences. The study was conducted in two phases. In the first phase, blood samples were drawn from 11 men and 12 women for 24 h after consumption of a single dose of either a solid or a liquid oat product on-site. Breakfast and lunch were also provided on-site. A single dose of solid (62 g of oat flakes) or liquid (196 mL of oat drink) containing individual AVAs and AVEs shown in Table 1 were consumed, respectively. Blood plasma samples were drawn for 24 h (0 h, 0.25 h, 0.5 h, 0.75 h, 1 h, 1.5 h, 2 h, 3 h, 4 h, 5 h, 6 h, 7 h, 8 h, 24 h). After the 24 h, at the second phase of the study, the corresponding product was further consumed three times per day for four days at either a low, medium, or high intake dose (98, 196 and 392 mL for liquid oats and 31, 62 and 123 g for oat flakes with corresponding contents of AVAs and AVEs (Table 1) in a Latin square design. Therefore, a total number of 8 participants (2 males and 6 females) were randomized to the low dose, 9 participants (3 males and 6 females) for medium dose and 6 participants (3males and 3 females) for the high dose. Participants consumed the provided products at home and were instructed to follow their habitual diets with restriction on the consumption of oat products. A list of relevant foods was provided as a guide. The oat flakes were pre-portioned into individual bags and could be consumed without heating, mixed with yoghurt, cottage cheese, sour milk or any liquid. Participants were instructed to consume the full amount, including the liquid or food the oats were mixed with. Liquid oat products were weighed prior consumption, and they were to be consumed without any additional food. In all cases the time of oat intake was recorded in a food journal. On the fifth day of phase II, a fasting sample was drawn. Fecal samples were collected at baseline and at the end of phase II of the intervention. Between each study period, there was a wash-out period of eight days where participants consumed their habitual diet. After the washout, participants started with a single dose and repeated dosing for the other product in the same way as for the first. The participants were instructed to avoid foods containing oats during the last three days prior to the start of the study and during the last three days of the wash-out period. Compliance was assessed based on information provided in a compliance journal during the study weeks as well as through 2-day food records. The oat products used in the study were provided to the participants. The flakes for the single dose were consumed with water ad lib and for the repeated dose they could be mixed with water, yoghurt, milk, sour milk or cottage cheese with the condition that all the amount of the oat product is consumed. The oat drink was consumed without any other product.
All blood samples were collected into EDTA-coated tubes by a trained nurse. […]

On the set-up of series [2]: method as in PMID 30977921. The conditions noted are these: cited from earlier work.
On the set-up of series [3]: method as in PMID 39491249. The conditions noted are these: in the presence of starch; cited from earlier work.
Series [4] is described as follows: PK-model estimation of oat product dose and dosing interval needed to reach plasma concentration above LLOQ. The following applies: for estimated volume of liquid oats resulting in plasma concentration above LLOQ: consumption interval every 4 h; for estimated intake volume of liquid oats needed for plasma concentration above LLOQ: intake every 8 h. Details: species or system humans. The method, then:
A compartmental model with two absorption compartments and a plasma compartment with linear elimination for each molecule separately described better the experimental data from the single dose intake compared to a compartmental model of a single absorption compartment (Figure S3). Parameter estimation was performed using the non-linear mixed-effects approach with lognormal inter-individual variability in all three model parameters: distribution volume over bioavailability ( [drawing 1] ), absorption rate ( [drawing 2] ), elimination rate ( [drawing 3] ), (R package nlmixr2 [34]). The results were reported as population means with coefficient of variation (Table S1). The area under the curve (AUC) and Cmax were normalized (AUCnorm) for the nmol intake of each molecule. Statistical analysis was conducted with R software environment. The compounds were compared for their PK parameters within the same product and between products using repeated ANOVA approach (lme4 package) and then by pairwise comparison adjusted for post hoc Tukey-Kramer honestly significant difference. All statistical analyses were performed on log- transformed data. Based on the PK models built on the single-dose data, a linear relationship ( [drawing 4] was derived between dose and dosing interval (intake frequency, [drawing 5] ) to estimate the AVA intake needed to reach an average concentration (at steady state) that is measurable above lower limit of quantification (LLOQ). To translate the intake of AVAs from the linear relationship (Dose) to corresponding oat flake product intake, we estimated the content of AVAs in different products using reported data from the literature and assigned values, where possible. For the flakes, information in literature was available for AVA 2c, AVA 2p and AVA 2 f. Therefore, an average value for these compounds per food product was assigned while for the oat drink and for the less known AVAs; AVA 2pd and AVA 2fd, an average value based on the measured products in our laboratory was used (Table S2). In the second phase of the intervention, following a repeated dosing period of 4 days, plasma concentrations were determined over a dosing interval recorded by the individuals and were compared to their corresponding predicted values in blood. This comparison allowed for an assessment of the model’s accuracy in predicting AVAs’ behavior under repeated dosing conditions. Only experimental data above the limit of quantification were used for the comparison. Further, the data were tested for outliers with the interquartile range (IQR) approach and five observations were considered outliers and were removed.

Setting [5] is: 62 g of oat flakes, solid oat product (62 g oat flakes).
The mark [6] stands for this setting: 196 mL of oat drink, liquid oat product (196 mL oat drink).
[7] abbreviates: control samples (digestion without proteins).
The mark [8] stands for this setting: in the presence of whey protein.

Each structure is given as a SMILES string. Like-named read-outs stand apart in the source and are kept apart here.

With `O=C(/C=C/c1ccc(O)c(O)c1)Nc1ccc(O)cc1C(=O)O` [AVA 2c], in series [1] (62 g of oat flakes, solid), the Cmax amounted to 4.91 ± 0.52 nM, the half-life was 2.13 ± 0.16 h and the k el is 9.17e-05 s⁻¹. For the same compound, in series [1] (196 mL of oat drink, liquid), the Cmax worked out at 1.16 ± 0.12 nM, the half-life is 1.58 ± 0.12 h and the k el was 0.000122 s⁻¹. For the same compound, the Tmax in series [1] (setting [5]) is 1.37 ± 0.06 h. In addition, the Tmax in series [1] (setting [6]) is 0.73 ± 0.03 h. In series [1] (liquid), the “V, population estimate (RSE%)” value is 500 (19) L; the “ka, population estimate (RSE%)” value is 5.9 (18) 1/h; the “ke, population estimate (RSE%)” value is 0.43 (17) 1/h; the ka was 6.0 ± 0.3^1 1/h. Moreover, in series [1] (liquid), the V/F is recorded as 430 ± 42^2. Also, in series [1] (solid), the “V, population estimate (RSE%)” value was 720 (22) L; the “ka, population estimate (RSE%)” value is recorded as 2.8 (10) 1/h; the “ke, population estimate (RSE%)” value was 0.31 (17) 1/h; the ka was 2.8 ± 0.16 h⁻¹. The V/F in series [1] (solid) was determined as 698 ± 71. Besides, in series [2] (setting [7]), the “bioaccessibility, times lower compared to AVA 2f” value was 3.9 times and the “bioaccessibility, times lower compared to AVA 2p” value is recorded as 4.6 times. For the same compound, in series [2] (setting [8]), the “bioaccessibility, times increase” value is reported as 3.6 times. For the same compound, the change of bioaccessibility result in series [3] is on record as “increased”. In series [4], the “estimated volume of liquid oats resulting in plasma concentration above LLOQ” value is on record as “about 30 mL” and the “estimated intake volume of liquid oats needed for plasma concentration above LLOQ” value is given as 65 mL.

`COc1cc(/C=C/C(=O)Nc2ccc(O)cc2C(=O)O)ccc1O` [AVA 2f]: in series [1] (62 g of oat flakes, solid), the peak level (Cmax) was 2.1 ± 0.22 nM, the half-life was 2.28 ± 0.18 h and the k el is 8.33e-05 s⁻¹. Moreover, in series [1] (196 mL of oat drink, liquid), the peak level (Cmax) was 0.69 ± 0.07 nM, the half-life is 3.2 h and the k el was 6.11e-05 s⁻¹. Also, the Tmax in series [1] (setting [5]) amounted to 1.11 ± 0.05 h. In addition, the Tmax in series [1] (setting [6]) was determined as 0.98 ± 0.04 h. For the same compound, in series [1] (liquid), the “V, population estimate (RSE%)” value was 1600 (34) L; the “ka, population estimate (RSE%)” value is listed as 4.8 (3) 1/h; the T1/2 is on record as 3.19 ± 0.25^2 h; the ka is 5.0 ± 0.3^2 1/h. Besides, in series [1] (liquid), the V/F is 1641 ± 168^2. In addition, in series [1] (solid), the “V, population estimate (RSE%)” value is given as 2600 (5) L; the “ka, population estimate (RSE%)” value was 3.8 (26) 1/h; the ka was determined as 3.8 ± 0.21 h⁻¹; the V/F is 2561 ± 262. For the same compound, the change of bioaccessibility entry in series [2] (setting [8]) was “slight increase”. Further, the change of bioaccessibility entry in series [3] is listed as “decreased”. In series [4] (oat flakes consumed every 4 h), the “average amount of oat flakes needed to reach measurable plasma levels (above LLOQ)” value is 235 g. Further, the “amount of oat flakes needed to reach measurable plasma levels (above LLOQ)” value in series [4] (oat flakes consumed every 8 h) was 470 g.

`O=C(/C=C/c1ccc(O)cc1)Nc1ccc(O)cc1C(=O)O` [AVA 2p]: in series [1] (62 g of oat flakes, solid), the Cmax came out at 20 ± 2.12 nM, the half-life is 1.42 ± 0.11 h and the k el is 0.000136 s⁻¹. Besides, in series [1] (196 mL of oat drink, liquid), the Cmax is 4.94 ± 0.5 nM, the half-life was 1.3 h and the k el is 0.000144 s⁻¹. The Tmax in series [1] (setting [5]) is 1.91 ± 0.08 h. In addition, in series [1] (setting [6]), the Tmax was found to be 1.21 ± 0.05 h. Moreover, in series [1] (liquid), the “V, population estimate (RSE%)” value is listed as 113 (16) L; the “ka, population estimate (RSE%)” value is 2.8 (9) 1/h; the “ke, population estimate (RSE%)” value was 0.52 (10) 1/h; the T1/2 turned out to be 1.33 ± 0.10 h. In addition, in series [1] (liquid), the ka is listed as 2.8 ± 0.2^1 1/h and the V/F is 111 ± 11^1. In series [1] (solid), the “V, population estimate (RSE%)” value was 220 (22) L; the “ka, population estimate (RSE%)” value is given as 1.6 (10) 1/h; the “ke, population estimate (RSE%)” value is 0.44 (17) 1/h; the ka turned out to be 1.50 ± 0.08 h⁻¹. Besides, in series [1] (solid), the V/F is 250 ± 26. Further, the change of bioaccessibility result in series [2] (setting [8]) is “slight increase”. The change of bioaccessibility result in series [3] is listed as “decreased”. In series [4], the “estimated volume of liquid oats resulting in plasma concentration above LLOQ” value is “about 30 mL” and the “estimated intake volume of liquid oats needed for plasma concentration above LLOQ” value is 65 mL.

A word on the Cmax: it is the highest concentration seen after dosing. One may read the half-life as the time needed for the level to fall by half in the phase considered. What is called Tmax is the time at which the peak concentration occurs.

Values taken from PMC12418703, “Avenanthramides and avenacosides as biomarkers of oat intake: a pharmacokinetic study of solid and liquid oat consumption under single and repeated dose conditions” (Nutrition Journal, 2025).
